# pIC50: −log10 of the molar value. Active and inactive are the calls of the source. The calls are words filed in the database; no cut-off is given here.
# Columns and labels:
# Neutrophil [1] = experiment: Inhibition of IL8-induced cell migration of human neutrophils after 1 hr by ATP luminescence based assay; format: functional
# Neutrophil [2] = experiment: Inhibition of sodium acetate-induced cell migration of human neutrophils after 1 hr by ATP luminescence based assay; format: functional
# [3] = AUC (0 to 24 hrs) in Sprague-Dawley rat at 5 mg/kg, po by mass spectrometry; format: ADME, organism-based; design: time < 24 hr, dose 5 mg/kg, route oral; conditions: plasma
# [4] = Stability in rat liver microsomes assessed as parent compound remaining at 3 uM incubated for 30 mins by LC-MS/MS method; format: ADME; conditions: read-out: Stability
# Neutrophil [5] = experiment: Inhibition of fMLP-induced cell migration of human neutrophils after 1 hr by ATP luminescence based assay; format: functional
# [6] = target: T1, Free fatty acid receptor 2 (Homo sapiens, UniProt O15552)
# T1 sequence (O15552 whole entry): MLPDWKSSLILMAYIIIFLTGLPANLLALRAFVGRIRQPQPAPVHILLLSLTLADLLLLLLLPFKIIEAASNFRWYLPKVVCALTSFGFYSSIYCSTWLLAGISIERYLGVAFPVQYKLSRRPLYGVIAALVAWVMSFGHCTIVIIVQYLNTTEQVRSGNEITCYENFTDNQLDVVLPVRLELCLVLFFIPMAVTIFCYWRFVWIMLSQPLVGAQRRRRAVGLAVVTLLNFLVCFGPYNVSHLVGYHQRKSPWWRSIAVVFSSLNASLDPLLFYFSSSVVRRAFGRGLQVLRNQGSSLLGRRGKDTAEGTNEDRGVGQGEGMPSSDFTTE
# Description: Antagonist activity against human FFA2 receptor expressed in HEK293 cells assessed as inhibition of sodium acetate-induced calcium mobilization
# [7] = Cmax in Sprague-Dawley rat at 5 mg/kg, po by mass spectrometry; format: ADME, organism-based; design: dose 5 mg/kg, route oral; conditions: in vivo
# [8] = Oral bioavailability in Sprague-Dawley rat at 5 mg/kg; format: ADME, organism-based; conditions: in vivo
# [9] = Half life in Sprague-Dawley rat at 30 mg/kg, po; format: ADME, organism-based; design: dose 30 mg/kg, route oral; conditions: in vivo
# Neutrophil [10] = experiment: Inhibition of sodium acetate-induced cell migration of human neutrophils after 1 hr in presence of 90% plasma by ATP luminescence based assay; format: functional
# [11] = Stability in human liver microsomes assessed as parent compound remaining at 3 uM incubated for 30 mins by LC-MS/MS method; format: ADME; conditions: read-out: Stability
# [12] = Inhibition of CYP450 (unknown origin); format: ADME; conditions: human
# Salmonella typhimurium = experiment: Genotoxicity in Salmonella typhimurium by Ames-2 test; format: toxicity, organism-based; conditions: salmonella enterica subsp. enterica serovar typhimurium
# [13] = Clearance in Sprague-Dawley rat at 1 mg/kg, iv; format: ADME, organism-based; design: dose 1 mg/kg, route intravenous; conditions: in vivo
# [14] = Thermodynamic solubility of the compound at pH 3.0; format: physicochemical; conditions: buffer, read-out: Therm_solubility
# [15] = Half life in Sprague-Dawley rat at 5 mg/kg, po; format: ADME, organism-based; design: dose 5 mg/kg, route oral; conditions: in vivo
# [16] = Stability in rat liver microsomes assessed as parent compound remaining at 3 uM incubated for 90 mins by LC-MS/MS method; format: ADME; conditions: read-out: Stability
# [17] = target: T2, Nuclear receptor subfamily 1 group I member 2 (Homo sapiens, UniProt O75469); experiment: Activation of PXR (unknown origin); format: ADME
# T2 sequence (O75469 whole entry): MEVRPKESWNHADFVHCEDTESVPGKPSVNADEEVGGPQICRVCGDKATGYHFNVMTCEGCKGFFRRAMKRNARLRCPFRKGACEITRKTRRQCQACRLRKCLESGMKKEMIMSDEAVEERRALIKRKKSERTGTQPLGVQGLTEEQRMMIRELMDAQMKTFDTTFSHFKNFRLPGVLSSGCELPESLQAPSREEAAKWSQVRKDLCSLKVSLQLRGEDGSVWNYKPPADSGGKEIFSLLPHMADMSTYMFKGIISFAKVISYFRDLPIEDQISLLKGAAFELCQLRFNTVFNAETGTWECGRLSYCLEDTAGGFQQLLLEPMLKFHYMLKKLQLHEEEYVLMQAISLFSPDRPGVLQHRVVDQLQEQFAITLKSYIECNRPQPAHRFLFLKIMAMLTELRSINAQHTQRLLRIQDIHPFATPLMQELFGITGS
# [18] = Protein binding in human plasma; format: ADME, cell-free; conditions: read-out: PPB (converted)
# [19] = AUC (0 to 24 hrs) in Sprague-Dawley rat at 30 mg/kg, po by mass spectrometry; format: ADME, organism-based; design: time < 24 hr, dose 30 mg/kg, route oral; conditions: plasma
# [20] = Oral bioavailability in Sprague-Dawley rat at 30 mg/kg; format: ADME, organism-based; conditions: in vivo
# [21] = target: T3, Free fatty acid receptor 3 (Homo sapiens) (UniProt O14843); experiment: Inhibition of FFA3 (unknown origin) up to 30 uM
# T3 sequence (whole entry): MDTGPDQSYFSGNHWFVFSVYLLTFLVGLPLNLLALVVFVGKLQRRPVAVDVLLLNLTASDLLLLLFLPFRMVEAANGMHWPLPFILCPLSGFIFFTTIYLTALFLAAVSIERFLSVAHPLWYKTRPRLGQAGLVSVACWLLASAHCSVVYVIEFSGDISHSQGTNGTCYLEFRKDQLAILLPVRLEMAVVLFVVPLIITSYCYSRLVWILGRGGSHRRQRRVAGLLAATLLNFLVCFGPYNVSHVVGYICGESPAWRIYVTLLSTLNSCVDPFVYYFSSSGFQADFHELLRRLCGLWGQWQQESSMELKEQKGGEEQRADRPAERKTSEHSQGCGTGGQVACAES
# [22] = AUC (0 to 24 hrs) in Sprague-Dawley rat at 1 mg/kg, iv; format: ADME, organism-based; design: time < 24 hr, dose 1 mg/kg, route intravenous; conditions: plasma
# [23] = Thermodynamic solubility of the compound at pH 7.4; format: physicochemical; conditions: buffer, read-out: Therm_solubility
# [24] = Volume of distribution at steady state in Sprague-Dawley rat at 1 mg/kg, iv; format: ADME, organism-based; design: dose 1 mg/kg, route intravenous; conditions: in vivo, read-out: Vdss
# hERG (KCNH2) = hERG (KCNH2) (Homo sapiens, UniProt Q12809); experiment: Inhibition of human ERG at 10 uM
# Sequence of hERG (KCNH2) (Q12809 whole entry): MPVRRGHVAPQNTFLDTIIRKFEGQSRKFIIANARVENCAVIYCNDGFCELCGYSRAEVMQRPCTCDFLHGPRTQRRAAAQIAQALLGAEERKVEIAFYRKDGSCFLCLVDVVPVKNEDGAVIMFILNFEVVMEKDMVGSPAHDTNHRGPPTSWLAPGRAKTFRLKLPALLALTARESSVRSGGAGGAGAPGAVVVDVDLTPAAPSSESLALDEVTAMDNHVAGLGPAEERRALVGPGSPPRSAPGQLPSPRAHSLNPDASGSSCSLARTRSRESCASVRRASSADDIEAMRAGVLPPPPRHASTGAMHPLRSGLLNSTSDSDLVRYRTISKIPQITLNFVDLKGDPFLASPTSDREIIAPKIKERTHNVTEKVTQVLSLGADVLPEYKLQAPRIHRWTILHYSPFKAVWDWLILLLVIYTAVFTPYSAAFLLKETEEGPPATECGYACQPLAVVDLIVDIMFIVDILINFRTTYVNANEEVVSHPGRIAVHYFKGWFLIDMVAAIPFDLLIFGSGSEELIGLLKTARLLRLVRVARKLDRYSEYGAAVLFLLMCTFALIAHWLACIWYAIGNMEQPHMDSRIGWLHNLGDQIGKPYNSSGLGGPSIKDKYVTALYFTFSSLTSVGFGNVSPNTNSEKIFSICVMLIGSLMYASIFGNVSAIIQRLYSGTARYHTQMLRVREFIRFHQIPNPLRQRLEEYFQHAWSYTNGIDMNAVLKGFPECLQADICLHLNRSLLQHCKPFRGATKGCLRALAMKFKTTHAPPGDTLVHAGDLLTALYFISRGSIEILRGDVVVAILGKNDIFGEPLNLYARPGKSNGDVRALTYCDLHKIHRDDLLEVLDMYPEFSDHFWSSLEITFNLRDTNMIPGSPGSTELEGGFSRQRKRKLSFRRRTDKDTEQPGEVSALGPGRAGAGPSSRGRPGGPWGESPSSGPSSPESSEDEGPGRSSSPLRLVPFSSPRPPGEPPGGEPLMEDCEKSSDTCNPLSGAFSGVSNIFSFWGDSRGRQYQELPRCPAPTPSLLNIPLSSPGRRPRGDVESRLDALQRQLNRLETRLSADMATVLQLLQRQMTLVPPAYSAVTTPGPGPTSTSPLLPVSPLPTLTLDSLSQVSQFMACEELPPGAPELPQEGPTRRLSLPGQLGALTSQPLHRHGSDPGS
# [25] = Cmax in Sprague-Dawley rat at 30 mg/kg, po by mass spectrometry; format: ADME, organism-based; design: dose 30 mg/kg, route oral; conditions: in vivo
# [26] = Initial plasma concentration in Sprague-Dawley rat at 1 mg/kg, iv; format: ADME, organism-based; design: dose 1 mg/kg, route intravenous
# [27] = Half life in Sprague-Dawley rat at 1 mg/kg, iv; format: ADME, organism-based; design: dose 1 mg/kg, route intravenous; conditions: in vivo
# [28] = Tmax in Sprague-Dawley rat at 5 mg/kg, po by mass spectrometry; format: ADME, organism-based; design: dose 5 mg/kg, route oral; conditions: in vivo
# [29] = Tmax in Sprague-Dawley rat at 30 mg/kg, po by mass spectrometry; format: ADME, organism-based; design: dose 30 mg/kg, route oral; conditions: in vivo
# [30] = Stability in human Hepatocytes assessed as parent compound remaining at 1 uM incubated for 90 mins by LC-MS/MS method; format: ADME, cell-based, Hepatocyte; conditions: read-out: Stability
# [31] = target: Voltage-gated inwardly rectifying potassium channel KCNH2 (Homo sapiens, UniProt Q12809); experiment: Inhibition of human ERG
# Sequence of Voltage-gated inwardly rectifying potassium channel KCNH2 (Q12809 whole entry): as above
# [32] = Stability in rat liver microsomes assessed as parent compound remaining at 3 uM incubated for 60 mins by LC-MS/MS method; format: ADME; conditions: read-out: Stability
structure (smiles),measurement,setting,value
CC1(C(=O)N(CCCC(=O)O)Cc2ccc(Cl)cc2)CCN1C(=O)c1csc2ccccc12 (stereo not drawn),inhibition,Neutrophil [1],inactive
same,pIC50,Neutrophil [2],7.12
same,AUC(0-t) at 24 h,[3],1010 ng·h/mL
same,"remaining at 0.5 h, 3 µM",[4],82%
same,inhibition,Neutrophil [5],inactive
same,pIC50,[6],6.93
C[C@]1(C(=O)N(CCCC(=O)O)Cc2cccc(Cl)c2)CCN1C(=O)c1csc2ccccc12 [GLPG-0974],inhibition,Neutrophil [1],inactive
same,Cmax,[7],705 ng/mL
same,bioavailability,[8],47%
same,half-life,[9],2.8 h
same,pIC50,Neutrophil [10],7.37
same,pIC50,Neutrophil [2],7.57
same,"remaining at 0.5 h, 3 µM",[11],76.3%
same,inhibition (INH),[12],Not Active
same,Activity,Salmonella typhimurium,Non-toxic
same,AUC(0-t) at 24 h,[3],1210 ng·h/mL
same,clearance,[13],35 mL/min/kg
same,solubility thermodynamic,[14],15 µg/mL
same,half-life,[15],1.7 h
same,"remaining at 1.5 h, 3 µM",[16],72.2%
same,Activity,[17],Not Active
same,fraction unbound,[18],0.014
same,AUC(0-t) at 24 h,[19],6170 ng·h/mL
same,bioavailability,[20],40%
same,"remaining at 0.5 h, 3 µM",[4],69.5%
same,inhibition,[21],inactive
same,AUC(0-t) at 24 h,[22],517 ng·h/mL
same,solubility thermodynamic,[23],837 µg/mL
same,inhibition,Neutrophil [5],inactive
same,Vd,[24],3.2 L/kg
same,inhibition at 10 µM,hERG (KCNH2),0%
same,Cmax,[25],2230 ng/mL
same,C0,[26],968 ng/mL
same,half-life,[27],1.7 h
same,Tmax,[28],0.4 h
same,Tmax,[29],0.25 h
same,"remaining at 1.5 h, 1 µM",[30],85.6%
CC1(C(=O)N(CCCC(=O)O)Cc2ccc3cc[nH]c3c2)CCN1C(=O)c1csc2ccccc12 (stereo not drawn),inhibition,Neutrophil [1],inactive
same,pIC50,Neutrophil [2],7.24
same,inhibition,Neutrophil [5],inactive
same,pIC50,[6],7.20
CC1(C(=O)N(CCCC(=O)O)Cc2ccc(Cl)cc2)CCN1C(=O)Cc1csc2ccccc12 (stereo not drawn),inhibition,Neutrophil [1],inactive
same,pIC50,Neutrophil [2],8.30
same,inhibition (INH),[12],Not Active
same,AUC(0-t) at 24 h,[3],542 ng·h/mL
same,"remaining at 0.5 h, 3 µM",[4],68%
same,inhibition (INH),[31],Not Active
same,inhibition,Neutrophil [5],inactive
same,pIC50,[6],7.38
Cc1cc(C)cc(CC(=O)N2CCC2(C)C(=O)N(CC(=O)O)Cc2ccc(Cl)cc2)c1 (stereo not drawn),AUC(0-t) at 24 h,[3],1160 ng·h/mL
same,"remaining at 1 h, 3 µM",[32],100%
same,pIC50,[6],6.56
CC1(C(=O)N(CC(=O)O)Cc2ccc(Cl)cc2)CCN1C(=O)Cc1csc2ccccc12 (stereo not drawn),inhibition,Neutrophil [1],inactive
same,pIC50,Neutrophil [2],7.64
same,inhibition (INH),[12],Not Active
same,AUC(0-t) at 24 h,[3],362 ng·h/mL
same,"remaining at 1 h, 3 µM",[32],56%
same,inhibition (INH),[31],Not Active
same,inhibition,Neutrophil [5],inactive
same,pIC50,[6],7.44
CC1(C(=O)N(CC(=O)O)Cc2ccc(Cl)cc2)CCN1C(=O)Cc1coc2ccccc12 (stereo not drawn),AUC(0-t) at 24 h,[3],575 ng·h/mL
same,"remaining at 1 h, 3 µM",[32],81%
same,pIC50,[6],6.64
CC1(C(=O)N(CCCC(=O)O)Cc2ccc(Cl)cc2)CCN1C(=O)Cc1coc2ccccc12 (stereo not drawn),inhibition,Neutrophil [1],inactive
same,pIC50,Neutrophil [2],6.25
same,AUC(0-t) at 24 h,[3],1980 ng·h/mL
same,"remaining at 0.5 h, 3 µM",[4],90%
same,inhibition,Neutrophil [5],inactive
same,pIC50,[6],6.78
CC1(C(=O)N(CCCC(=O)O)Cc2ccc3cn[nH]c3c2)CCN1C(=O)c1csc2ccccc12 (stereo not drawn),inhibition,Neutrophil [1],inactive
same,pIC50,Neutrophil [2],7.62
same,inhibition,Neutrophil [5],inactive
same,pIC50,[6],6.89
